# Source: US12077503B2, “Substituted cyclic amides and their use as herbicides” (FMC CORPORATION, priority 2015, dated 2024)
# Experiments:
# Assay type in all cases: in vivo
# [1] = tested on: barnyardgrass (Echinochloa crus-galli); test: Test G Pre-Emergence Protocol; conditions: Echinochloa crus-galli, pre-emergence, 312 h, evaluated after 13 days; for pest or weed control at 15.625 g/ha: 15.625 g ai/ha; for pest or weed control at 15.625 g/ha / pest or weed control at 250 g/ha: read-out: Barnyardgrass damage rating (100=total damage to plant; 0=no damage to plant); for pest or weed control at 62.5 g/ha: 62.5 g ai/ha, 100=total damage to plant, 0=no damage to plant, read-out: Barnyardgrass damage rating; for pest or weed control at 250 g/ha: 250 g ai/ha
# Method in brief: (§1)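 Herbicidal effect was rated 13 days post-application on a scale where 100 equals total damage. Spraying took place the day after sowing, using 15.625, 62.5 or 250 g/ha of compound in a 50:50 acetone/water solution with 0.5% Tween 20.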
# corn (Zea mays) [2] = test: Test G Pre-Emergence Protocol; conditions: Zea mays, pre-emergence, 312 h, evaluated after 13 days; for plant injury at 15.625 g/ha: 15.625 g ai/ha; for plant injury at 15.625 g/ha / plant injury at 250 g/ha: read-out: Corn damage rating (100=total damage to plant; 0=no damage to plant); for plant injury at 62.5 g/ha: 62.5 g ai/ha, 100=total damage to plant, 0=no damage to plant, read-out: Corn damage rating; for plant injury at 250 g/ha: 250 g ai/ha
# Method in brief: as §1
# [3] = tested on: giant foxtail (Setaria faberi); test: Test G Pre-Emergence Protocol; conditions: Setaria faberi, pre-emergence, 312 h, evaluated after 13 days; for pest or weed control at 15.625 g/ha: 15.625 g ai/ha; for pest or weed control at 15.625 g/ha / pest or weed control at 250 g/ha: read-out: Foxtail, Giant damage rating (100=total damage to plant; 0=no damage to plant); for pest or weed control at 62.5 g/ha: 62.5 g ai/ha, 100=total damage to plant, 0=no damage to plant, read-out: Foxtail, Giant damage rating; for pest or weed control at 250 g/ha: 250 g ai/ha
# Method in brief: as §1
# [4] = tested on: ivy-leaved morning glory (Ipomoea hederacea); test: Test G Pre-Emergence Protocol; conditions: Ipomoea, pre-emergence, 312 h, evaluated after 13 days; for pest or weed control at 15.625 g/ha: 15.625 g ai/ha; for pest or weed control at 15.625 g/ha / pest or weed control at 250 g/ha: read-out: Morningglory, Ivy-leaved damage rating (100=total damage to plant; 0=no damage to plant); for pest or weed control at 62.5 g/ha: 62.5 g ai/ha, 100=total damage to plant, 0=no damage to plant, read-out: Morningglory, Ivy-leaved damage rating; for pest or weed control at 250 g/ha: 250 g ai/ha
# Method in brief: as §1
# [5] = tested on: redroot pigweed (Amaranthus retroflexus); test: Test G Pre-Emergence Protocol; conditions: Amaranthus retroflexus, pre-emergence, 312 h, evaluated after 13 days; for pest or weed control at 15.625 g/ha: 15.625 g ai/ha; for pest or weed control at 15.625 g/ha / pest or weed control at 250 g/ha: read-out: Pigweed, Redroot damage rating (100=total damage to plant; 0=no damage to plant); for pest or weed control at 62.5 g/ha: 62.5 g ai/ha, 100=total damage to plant, 0=no damage to plant, read-out: Pigweed, Redroot damage rating; for pest or weed control at 250 g/ha: 250 g ai/ha
# Method in brief: as §1
# [6] = tested on: velvetleaf (Abutilon theophrasti); test: Test G Pre-Emergence Protocol; conditions: Abutilon theophrasti, pre-emergence, 312 h, evaluated after 13 days; for pest or weed control at 15.625 g/ha: 15.625 g ai/ha; for pest or weed control at 15.625 g/ha / pest or weed control at 250 g/ha: read-out: Velvetleaf damage rating (100=total damage to plant; 0=no damage to plant); for pest or weed control at 62.5 g/ha: 62.5 g ai/ha, 100=total damage to plant, 0=no damage to plant, read-out: Velvetleaf damage rating; for pest or weed control at 250 g/ha: 250 g ai/ha
# Method in brief: as §1
# [7] = tested on: barnyardgrass (Echinochloa crus-galli); test: Test G Post-Emergence Protocol; conditions: Echinochloa crus-galli, post-emergence, 312 h, read-out: Barnyardgrass damage rating; for pest or weed control at 15.625 g/ha: 15.625 g ai/ha, evaluated after 13 days (100=total damage to plant; 0=no damage to plant); for pest or weed control at 62.5 g/ha: 62.5 g ai/ha; for pest or weed control at 62.5 g/ha / pest or weed control at 250 g/ha: evaluated after 13 days, 100=total damage to plant, 0=no damage to plant; for pest or weed control at 250 g/ha: 250 g ai/ha
# Method in brief: (§2)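 A glasshouse post-emergence test: 8-day-old plants sprayed at 15.625, 62.5 or 250 g/ha, then grown at 24/16 °C day/night with 14 h light and 65% humidity. Damage rated 13 days later, 0–100.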
# corn (Zea mays) [8] = test: Test G Post-Emergence Protocol; conditions: Zea mays, post-emergence, 312 h, read-out: Corn damage rating; for plant injury at 15.625 g/ha: 15.625 g ai/ha, evaluated after 13 days (100=total damage to plant; 0=no damage to plant); for plant injury at 62.5 g/ha: 62.5 g ai/ha; for plant injury at 62.5 g/ha / plant injury at 250 g/ha: evaluated after 13 days, 100=total damage to plant, 0=no damage to plant; for plant injury at 250 g/ha: 250 g ai/ha
# Method in brief: as §2
# [9] = tested on: giant foxtail (Setaria faberi); test: Test G Post-Emergence Protocol; conditions: Setaria faberi, post-emergence, 312 h, read-out: Foxtail, Giant damage rating; for pest or weed control at 15.625 g/ha: 15.625 g ai/ha, evaluated after 13 days (100=total damage to plant; 0=no damage to plant); for pest or weed control at 62.5 g/ha: 62.5 g ai/ha; for pest or weed control at 62.5 g/ha / pest or weed control at 250 g/ha: evaluated after 13 days, 100=total damage to plant, 0=no damage to plant; for pest or weed control at 250 g/ha: 250 g ai/ha
# Method in brief: as §2
# [10] = tested on: ivy-leaved morning glory (Ipomoea hederacea); test: Test G Post-Emergence Protocol; conditions: Ipomoea, post-emergence, 312 h, read-out: Morningglory, Ivy-leaved damage rating; for pest or weed control at 15.625 g/ha: 15.625 g ai/ha, evaluated after 13 days (100=total damage to plant; 0=no damage to plant); for pest or weed control at 62.5 g/ha: 62.5 g ai/ha; for pest or weed control at 62.5 g/ha / pest or weed control at 250 g/ha: evaluated after 13 days, 100=total damage to plant, 0=no damage to plant; for pest or weed control at 250 g/ha: 250 g ai/ha
# Method in brief: as §2
# [11] = tested on: redroot pigweed (Amaranthus retroflexus); test: Test G Post-Emergence Protocol; conditions: Amaranthus retroflexus, post-emergence, 312 h, read-out: Pigweed, Redroot damage rating; for pest or weed control at 15.625 g/ha: 15.625 g ai/ha, evaluated after 13 days (100=total damage to plant; 0=no damage to plant); for pest or weed control at 62.5 g/ha: 62.5 g ai/ha; for pest or weed control at 62.5 g/ha / pest or weed control at 250 g/ha: evaluated after 13 days, 100=total damage to plant, 0=no damage to plant; for pest or weed control at 250 g/ha: 250 g ai/ha
# Method in brief: as §2
# [12] = tested on: velvetleaf (Abutilon theophrasti); test: Test G Post-Emergence Protocol; conditions: Abutilon theophrasti, post-emergence, 312 h, read-out: Velvetleaf damage rating; for pest or weed control at 15.625 g/ha: 15.625 g ai/ha, evaluated after 13 days (100=total damage to plant; 0=no damage to plant); for pest or weed control at 62.5 g/ha: 62.5 g ai/ha; for pest or weed control at 62.5 g/ha / pest or weed control at 250 g/ha: evaluated after 13 days, 100=total damage to plant, 0=no damage to plant; for pest or weed control at 250 g/ha: 250 g ai/ha
# Method in brief: as §2
smiles,measurement,setting,value
Cc1c(F)cccc1NC(=O)[C@@H]1C(=O)N(C)C[C@H]1c1cccc(OCC(F)(F)F)c1 (racemic) [Compound 1764],pest or weed control at 15.625 g/ha,[1],40%
same,pest or weed control at 62.5 g/ha,[1],70%
same,pest or weed control at 250 g/ha,[1],80%
same,plant injury at 15.625 g/ha,corn (Zea mays) [2],0%
same,plant injury at 62.5 g/ha,corn (Zea mays) [2],20%
same,plant injury at 250 g/ha,corn (Zea mays) [2],70%
same,pest or weed control at 15.625 g/ha,[3],60%
same,pest or weed control at 62.5 g/ha,[3],70%
same,pest or weed control at 250 g/ha,[3],80%
same,pest or weed control at 15.625 g/ha,[4],0%
same,pest or weed control at 62.5 g/ha,[4],0%
same,pest or weed control at 250 g/ha,[4],20%
same,pest or weed control at 15.625 g/ha,[5],0%
same,pest or weed control at 62.5 g/ha,[5],10%
same,pest or weed control at 250 g/ha,[5],30%
same,pest or weed control at 15.625 g/ha,[6],0%
same,pest or weed control at 62.5 g/ha,[6],10%
same,pest or weed control at 250 g/ha,[6],30%
same,pest or weed control at 15.625 g/ha,[7],40%
same,pest or weed control at 62.5 g/ha,[7],50%
same,pest or weed control at 250 g/ha,[7],80%
same,plant injury at 15.625 g/ha,corn (Zea mays) [8],10%
same,plant injury at 62.5 g/ha,corn (Zea mays) [8],10%
same,plant injury at 250 g/ha,corn (Zea mays) [8],70%
same,pest or weed control at 15.625 g/ha,[9],70%
same,pest or weed control at 62.5 g/ha,[9],80%
same,pest or weed control at 250 g/ha,[9],80%
same,pest or weed control at 15.625 g/ha,[10],10%
same,pest or weed control at 62.5 g/ha,[10],30%
same,pest or weed control at 250 g/ha,[10],70%
same,pest or weed control at 15.625 g/ha,[11],0%
same,pest or weed control at 62.5 g/ha,[11],10%
same,pest or weed control at 250 g/ha,[11],30%
same,pest or weed control at 15.625 g/ha,[12],20%
same,pest or weed control at 62.5 g/ha,[12],40%
same,pest or weed control at 250 g/ha,[12],60%
Cc1cc(C2CN(C)C(=O)C2C(=O)Nc2cccc(F)c2F)cc(C)c1F (stereo not drawn) [Compound 1712],pest or weed control at 15.625 g/ha,[1],60%
same,pest or weed control at 62.5 g/ha,[1],80%
same,pest or weed control at 250 g/ha,[1],90%
same,plant injury at 15.625 g/ha,corn (Zea mays) [2],0%
same,plant injury at 62.5 g/ha,corn (Zea mays) [2],10%
same,plant injury at 250 g/ha,corn (Zea mays) [2],70%
same,pest or weed control at 15.625 g/ha,[3],80%
same,pest or weed control at 62.5 g/ha,[3],90%
same,pest or weed control at 250 g/ha,[3],90%
same,pest or weed control at 15.625 g/ha,[4],0%
same,pest or weed control at 62.5 g/ha,[4],0%
same,pest or weed control at 250 g/ha,[4],20%
same,pest or weed control at 15.625 g/ha,[5],10%
same,pest or weed control at 62.5 g/ha,[5],0%
same,pest or weed control at 250 g/ha,[5],10%
same,pest or weed control at 15.625 g/ha,[6],0%
same,pest or weed control at 62.5 g/ha,[6],0%
same,pest or weed control at 250 g/ha,[6],20%
same,pest or weed control at 15.625 g/ha,[7],50%
same,pest or weed control at 62.5 g/ha,[7],80%
same,pest or weed control at 250 g/ha,[7],90%
same,plant injury at 15.625 g/ha,corn (Zea mays) [8],40%
same,plant injury at 62.5 g/ha,corn (Zea mays) [8],70%
same,plant injury at 250 g/ha,corn (Zea mays) [8],70%
same,pest or weed control at 15.625 g/ha,[9],80%
same,pest or weed control at 62.5 g/ha,[9],80%
same,pest or weed control at 250 g/ha,[9],80%
same,pest or weed control at 15.625 g/ha,[10],10%
same,pest or weed control at 62.5 g/ha,[10],30%
same,pest or weed control at 250 g/ha,[10],70%
same,pest or weed control at 15.625 g/ha,[11],0%
same,pest or weed control at 62.5 g/ha,[11],20%
same,pest or weed control at 250 g/ha,[11],20%
same,pest or weed control at 15.625 g/ha,[12],10%
same,pest or weed control at 62.5 g/ha,[12],10%
same,pest or weed control at 250 g/ha,[12],40%
